# From US7138361B2, “Herbicidal heterocycles” (E. I. du Pont de Nemours and Company, priority 2000, dated 2006)
# Tests used:
# Type in all cases: in vivo
# [1] = test system: smallflower flatsedge (Cyperus difformis); experiment: Test C flooded paddy test; conditions: for Flatsedge plant response rating: Flooded Paddy, scale 0 to 100, 0 no effect, 100 complete control; for Plant response rating, Flatsedge: flooded paddy test, scale 0 to 100 (0 no effect, 100 complete control)
# In short: (§1)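 Visual ratings (0 = no effect, 100 = complete control) were made 12–14 days after treatment, relative to greenhouse controls. Plants in the flooded paddy test were rice, smallflower flatsedge, duck salad and barnyardgrass, treated at the 2-leaf stage.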
# [2] = test system: duck salad (Heteranthera limosa); experiment: Test C flooded paddy test; conditions: for Ducksalad plant response rating: Flooded Paddy, scale 0 to 100, 0 no effect, 100 complete control; for Plant response rating, Ducksalad: flooded paddy test, scale 0 to 100 (0 no effect, 100 complete control)
# In short: as §1
# [3] = test system: barnyardgrass (Echinochloa crus-galli); experiment: Test C flooded paddy test; conditions: for Barnyardgrass plant response rating: Flooded Paddy, scale 0 to 100, 0 no effect, 100 complete control
# In short: as §1
# [4] = test system: velvetleaf (Abutilon theophrasti); experiment: Test C preemergence
# In short: (§2)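 Pre- and postemergence treatments used a non-phytotoxic solvent/surfactant formulation; post-treated plants measured 2 to 18 cm. Greenhouse hold 12–14 d; % control estimated visually relative to controls.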
# corn (Zea mays) = experiment: Test C preemergence; conditions: for Plant response rating (0 to 100), Corn: visual evaluation after 12 to 14 days
# In short: as §2
# [5] = test system: woolly cupgrass (Eriochloa villosa); experiment: Test C preemergence; conditions: for Plant response rating (0 to 100), Cupgrass, Woolly: visual evaluation after 12 to 14 days
# In short: as §2
# [6] = test system: morningglory (Ipomoea hederacea); experiment: Test C preemergence
# In short: as §2
# [7] = test system: giant foxtail (Setaria faberii); experiment: Test C preemergence; conditions: for Plant response rating (0 to 100), Foxtail, Giant: visual evaluation after 12 to 14 days
# In short: as §2
# [8] = test system: common ragweed (Ambrosia elatior); experiment: Test C preemergence
# In short: as §2
# [9] = test system: bermudagrass (Cynodon dactylon); experiment: Test C preemergence; conditions: for Plant response rating (0 to 100 where 0 is no effect and 100 is complete control), Bermudagrass: visual evaluation after 12 to 14 days
# In short: as §2
# [10] = test system: lambsquarters (Chenopodium album); experiment: Test C preemergence
# In short: as §2
# [11] = test system: goosegrass (Eleusine indica); experiment: Test C preemergence; conditions: for Plant response rating (0 to 100), Goosegrass: visual evaluation after 12 to 14 days
# In short: as §2
# [12] = test system: yellow nutsedge (Cyperus esculentus); experiment: Test C preemergence
# In short: as §2
# [13] = test system: johnsongrass (Sorghum halepense); experiment: Test C preemergence; conditions: for Plant response rating (0 to 100), Johnsongrass: visual evaluation after 12 to 14 days
# In short: as §2
# kochia (Kochia scoparia) = experiment: Test C preemergence; conditions: for Plant response rating (0 to 100), Kochia: visual evaluation after 12 to 14 days
# In short: as §2
# [14] = test system: cocklebur (Xanthium strumarium); experiment: Test C preemergence; conditions: for Plant response rating (0 to 100), Cocklebur: visual evaluation after 12 to 14 days
# In short: as §2
# Nightshade = experiment: Test C preemergence
# soybean (Glycine max) = experiment: Test C preemergence
# In short: as §2
# [15] = test system: Surinam grass (Brachiaria decumbens); experiment: Test C preemergence; conditions: for Plant response rating (0 to 100), Surinam grass: visual evaluation after 12 to 14 days
# In short: as §2
# [16] = test system: pigweed (Amaranthus retroflexus); experiment: Test C preemergence
# In short: as §2
# [17] = test system: crabgrass (Digitaria sanguinalis); experiment: Test C preemergence; conditions: for Plant response rating (0 to 100), Crabgrass: visual evaluation after 12 to 14 days
# In short: as §2
# Sunflower = experiment: Test C preemergence; conditions: Rate 125 g/ha; scale 0 to 100, 0 no effect, 100 complete control
# [18] = Rate 125 g/ha, scale 0 to 100, 0 no effect, 100 complete control
# [19] = preemergence, Rate 62 g/ha, scale 0 to 100
# [20] = preemergence, Rate 500 g/ha, visual evaluation after 12 to 14 days
# [21] = preemergence, Rate 250 g/ha, scale 0 to 100, 0 no effect, 100 complete control
smiles,measurement,setting,value
CCC(CC)c1ccn(C2CCN(c3cccc(OC(C)C)c3)C2=O)n1 (centres unmarked) [Compound 84],Flatsedge plant response rating,[1]; Rate 250 g/ha,100
same,Flatsedge plant response rating,[1]; Rate 500 g/ha,100
same,"Plant response rating, Flatsedge",[1]; Rate 62 g/ha,90
same,"Plant response rating, Flatsedge",[1]; Rate 125 g/ha,90
same,Ducksalad plant response rating,[2]; Rate 250 g/ha,100
same,Ducksalad plant response rating,[2]; Rate 500 g/ha,100
same,"Plant response rating, Ducksalad",[2]; Rate 62 g/ha,90
same,"Plant response rating, Ducksalad",[2]; Rate 125 g/ha,90
same,Barnyardgrass plant response rating,[3]; Rate 250 g/ha,100
same,Barnyardgrass plant response rating,[3]; Rate 500 g/ha,100
same,"Plant response rating, Barnyardgrass","[3]; flooded paddy test, Rate 62 g/ha, scale 0 to 100 (0 no effect, 100 complete control)",80
same,"Plant response rating, Velvetleaf",[4]; [18],0
same,"Plant response rating, Velvetleaf",[4]; [19],0
same,"Plant response rating (0 to 100), Velvetleaf",[4]; [20],0
same,"Plant response rating, Velvetleaf",[4]; [21],0
same,"Plant response rating, Corn",corn (Zea mays); [18],0
same,"Plant response rating, Corn",corn (Zea mays); [19],0
same,"Plant response rating (0 to 100), Corn","corn (Zea mays); preemergence, Rate 250 g/ha",0
same,"Plant response rating (0 to 100), Corn","corn (Zea mays); preemergence, Rate 500 g/ha",0
same,"Plant response rating, Cupgrass, Woolly",[5]; [18],90
same,"Plant response rating, Cupgrass, Woolly",[5]; [19],60
same,"Plant response rating (0 to 100), Cupgrass, Woolly","[5]; preemergence, Rate 250 g/ha",90
same,"Plant response rating (0 to 100), Cupgrass, Woolly","[5]; preemergence, Rate 500 g/ha",100
same,"Plant response rating, Morningglory",[6]; [18],20
same,"Plant response rating, Morningglory",[6]; [19],0
same,"Plant response rating (0 to 100), Morningglory",[6]; [20],20
same,"Plant response rating, Morningglory",[6]; [21],20
same,"Plant response rating, Foxtail, Giant",[7]; [18],80
same,"Plant response rating, Foxtail, Giant",[7]; [19],10
same,"Plant response rating (0 to 100), Foxtail, Giant","[7]; preemergence, Rate 250 g/ha",100
same,"Plant response rating (0 to 100), Foxtail, Giant","[7]; preemergence, Rate 500 g/ha",100
same,"Plant response rating, Ragweed, Common",[8]; [18],0
same,"Plant response rating, Ragweed, Common",[8]; [19],0
same,"Plant response rating (0 to 100), Ragweed, Common",[8]; [20],0
same,"Plant response rating, Ragweed, Common",[8]; [21],0
same,"Plant response rating, Bermudagrass",[9]; [18],100
same,"Plant response rating, Bermudagrass",[9]; [19],100
same,"Plant response rating (0 to 100 where 0 is no effect and 100 is complete control), Bermudagrass","[9]; preemergence, Rate 250 g/ha",100
same,"Plant response rating (0 to 100 where 0 is no effect and 100 is complete control), Bermudagrass","[9]; preemergence, Rate 500 g/ha",100
same,"Plant response rating, Lambsquarters",[10]; [18],100
same,"Plant response rating, Lambsquarters",[10]; [19],100
same,"Plant response rating (0 to 100), Lambsquarters",[10]; [20],100
same,"Plant response rating, Lambsquarters",[10]; [21],100
same,"Plant response rating, Goosegrass",[11]; [18],80
same,"Plant response rating, Goosegrass",[11]; [19],20
same,"Plant response rating (0 to 100), Goosegrass","[11]; preemergence, Rate 250 g/ha",90
same,"Plant response rating (0 to 100), Goosegrass","[11]; preemergence, Rate 500 g/ha",100
same,"Plant response rating, Nutsedge",[12]; [18],0
same,"Plant response rating, Nutsedge",[12]; [19],0
same,"Plant response rating (0 to 100), Nutsedge",[12]; [20],0
same,"Plant response rating, Nutsedge",[12]; [21],0
same,"Plant response rating, Johnsongrass",[13]; [18],0
same,"Plant response rating, Johnsongrass",[13]; [19],0
same,"Plant response rating (0 to 100), Johnsongrass","[13]; preemergence, Rate 250 g/ha",0
same,"Plant response rating (0 to 100), Johnsongrass","[13]; preemergence, Rate 500 g/ha",0
same,"Plant response rating, Kochia",kochia (Kochia scoparia); [18],100
same,"Plant response rating, Kochia",kochia (Kochia scoparia); [19],80
same,"Plant response rating (0 to 100), Kochia","kochia (Kochia scoparia); preemergence, Rate 250 g/ha",100
same,"Plant response rating (0 to 100), Kochia","kochia (Kochia scoparia); preemergence, Rate 500 g/ha",100
same,"Plant response rating, Cocklebur",[14]; [18],0
same,"Plant response rating, Cocklebur",[14]; [19],0
same,"Plant response rating (0 to 100), Cocklebur","[14]; preemergence, Rate 250 g/ha",0
same,"Plant response rating (0 to 100), Cocklebur","[14]; preemergence, Rate 500 g/ha",0
same,"Plant response rating, Nightshade","Nightshade; Rate 62 g/ha, scale 0 to 100",30
same,"Plant response rating, Nightshade",Nightshade; [18],50
same,"Plant response rating, Nightshade","Nightshade; Rate 250 g/ha, scale 0 to 100, 0 no effect, 100 complete control",100
same,"Plant response rating, Soybean",soybean (Glycine max); [18],0
same,"Plant response rating, Soybean",soybean (Glycine max); [19],0
same,"Plant response rating (0 to 100), Soybean",soybean (Glycine max); [20],0
same,"Plant response rating, Soybean",soybean (Glycine max); [21],0
same,"Plant response rating, Surinam grass",[15]; [18],0
same,"Plant response rating, Surinam grass",[15]; [19],0
same,"Plant response rating (0 to 100), Surinam grass","[15]; preemergence, Rate 250 g/ha",30
same,"Plant response rating (0 to 100), Surinam grass","[15]; preemergence, Rate 500 g/ha",80
same,"Plant response rating, Pigweed",[16]; [18],0
same,"Plant response rating, Pigweed",[16]; [19],90
same,"Plant response rating (0 to 100), Pigweed",[16]; [20],90
same,"Plant response rating, Pigweed",[16]; [21],100
same,"Plant response rating, Crabgrass",[17]; [18],100
same,"Plant response rating, Crabgrass",[17]; [19],90
same,"Plant response rating (0 to 100), Crabgrass","[17]; preemergence, Rate 250 g/ha",100
same,"Plant response rating (0 to 100), Crabgrass","[17]; preemergence, Rate 500 g/ha",100
same,"Plant response rating, Sunflower",Sunflower,10
